Measured values from PubChem BioAssay (NCI).
“And” between values parts separate entries of the source, which are not always exact repeats. Equal entries are not always repeated.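 Five concentrations, 48 hours, 96-well plates. The concentration for 50% growth inhibition is given as GI50. TGI: concentration producing complete growth inhibition.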

Columns and labels:
Assay in all cases: NCI-60 cell line screen, 48 h
COLO 205 colon = tested on: COLO 205 colon
HOP-62 NSCLC = tested on: HOP-62 NSCLC
HS 578T breast = tested on: HS 578T breast
LOX IMVI melanoma = tested on: LOX IMVI melanoma
NCI-H226 lung = tested on: NCI-H226 lung
NCI/ADR-RES ovarian = tested on: NCI/ADR-RES ovarian
OVCAR-4 ovarian = tested on: OVCAR-4 ovarian
RXF 393 renal = tested on: RXF 393 renal
SF-268 CNS = tested on: SF-268 CNS
TK-10 renal = tested on: TK-10 renal

Cc1c(N)nc(C(CC(N)=O)NCC(N)C(N)=O)nc1C(=O)NC(C(=O)NC(C)C(O)C(C)C(=O)NC(C(=O)NCCc1nc(-c2nc(C(=O)NCCCNC(C)c3ccccc3)cs2)cs1)C(C)O)C(OC1OC(CO)C(O)C(O)C1OC1OC(CO)C(O)C(OC(N)=O)C1O)c1cnc[nH]1 (stereo not drawn)
GI50 (COLO 205 colon): 32.6 µM | TGI (COLO 205 colon): 50 µM and > 100 µM | GI50 (HOP-62 NSCLC): 0.0845 µM | TGI (HOP-62 NSCLC): 1.07 µM and 3.01 µM | TGI (HS 578T breast): 0.727 µM | GI50 (LOX IMVI melanoma): 0.479 µM | TGI (LOX IMVI melanoma): 2.3 µM and 10.3 µM | GI50 (NCI-H226 lung): 1.59 µM | TGI (NCI-H226 lung): 2.97 µM and 24.8 µM | TGI (NCI/ADR-RES ovarian): 45.5 µM | GI50 (OVCAR-4 ovarian): 81.5 µM | TGI (OVCAR-4 ovarian): 33.7 µM and > 100 µM | TGI (RXF 393 renal): 2.82 µM | GI50 (SF-268 CNS): 11.1 µM | TGI (SF-268 CNS): 50 µM and 94.7 µM | GI50 (TK-10 renal): > 100 µM | TGI (TK-10 renal): 50 µM and > 100 µM

CO[C@H]1C[C@](C)(O)Cc2cc3c(c(O)c21)C(=O)c1c(O)cc2c(c1C3=O)O[C@@H]1O[C@@]2(C)[C@H](O)[C@@H](N(C)C)[C@@H]1O
GI50 (COLO 205 colon): 1.46 µM | TGI (COLO 205 colon): 2.97 µM and 8.57 µM | GI50 (HOP-62 NSCLC): 0.48 µM | TGI (HOP-62 NSCLC): 2.57 µM and 1.5 µM | TGI (HS 578T breast): 22.6 µM | GI50 (LOX IMVI melanoma): 0.509 µM and 1.06 µM | TGI (LOX IMVI melanoma): 2.15 µM and 2.71 µM | TGI (NCI-H226 lung): 3.26 µM and 5.15 µM | TGI (NCI/ADR-RES ovarian): 27.8 µM | GI50 (OVCAR-4 ovarian): 1.87 µM | TGI (OVCAR-4 ovarian): 3.46 µM and 12.6 µM | GI50 (RXF 393 renal): 1.9 µM | TGI (RXF 393 renal): 4.01 µM and 4.21 µM | GI50 (SF-268 CNS): 1.52 µM | TGI (SF-268 CNS): 7.01 µM and 11.9 µM | GI50 (TK-10 renal): 3.89 µM | TGI (TK-10 renal): 6.49 µM and 21.5 µM

C=C1C(=O)O[C@H]2[C@H]1CC/C(COC(=O)OC/C1=C/CC[C@@]3(C)O[C@H]3[C@H]3OC(=O)[C@@H](CN(C)C)[C@@H]3CC1)=C\CC[C@@]1(C)O[C@@H]21
GI50 (COLO 205 colon): 0.487 µM | TGI (COLO 205 colon): 1.93 µM | GI50 (HOP-62 NSCLC): 12.2 µM | TGI (HOP-62 NSCLC): 26.5 µM | GI50 (HS 578T breast): 4.39 µM | TGI (HS 578T breast): 26.9 µM | GI50 (LOX IMVI melanoma): 1.47 µM | TGI (LOX IMVI melanoma): 2.97 µM | GI50 (NCI-H226 lung): 2.65 µM | TGI (NCI-H226 lung): 10 µM | GI50 (NCI/ADR-RES ovarian): 12.8 µM | TGI (NCI/ADR-RES ovarian): 29.7 µM | GI50 (OVCAR-4 ovarian): 1.42 µM | TGI (OVCAR-4 ovarian): 3.1 µM | GI50 (RXF 393 renal): 0.306 µM | TGI (RXF 393 renal): 1.35 µM | GI50 (SF-268 CNS): 3.07 µM | TGI (SF-268 CNS): 13.7 µM | GI50 (TK-10 renal): 1.18 µM | TGI (TK-10 renal): 2.57 µM

C=C1SC(=Nc2ccccc2Cl)N(C(=O)c2sc3ccccc3c2Cl)C12CCCCC2
GI50 (COLO 205 colon): 8.5 µM | TGI (COLO 205 colon): 22.4 µM | GI50 (HOP-62 NSCLC): 9.08 µM | TGI (HOP-62 NSCLC): > 100 µM | GI50 (HS 578T breast): 4.84 µM | TGI (HS 578T breast): > 100 µM | GI50 (LOX IMVI melanoma): 21.8 µM | TGI (LOX IMVI melanoma): > 100 µM | GI50 (NCI-H226 lung): 40 µM | TGI (NCI-H226 lung): > 100 µM | GI50 (NCI/ADR-RES ovarian): 3.51 µM | TGI (NCI/ADR-RES ovarian): > 100 µM | GI50 (OVCAR-4 ovarian): 7.75 µM | TGI (OVCAR-4 ovarian): > 100 µM | GI50 (RXF 393 renal): 15.2 µM | TGI (RXF 393 renal): 88.7 µM | GI50 (SF-268 CNS): 11.7 µM | TGI (SF-268 CNS): > 100 µM | GI50 (TK-10 renal): 15.2 µM | TGI (TK-10 renal): > 100 µM

Cc1[nH]c(N)nc(=S)c1CCC(=O)O
TGI (COLO 205 colon): > 100 µM | TGI (HOP-62 NSCLC): > 100 µM | TGI (HS 578T breast): > 100 µM | TGI (LOX IMVI melanoma): > 100 µM | TGI (NCI-H226 lung): > 100 µM | TGI (NCI/ADR-RES ovarian): > 100 µM | TGI (OVCAR-4 ovarian): > 100 µM | TGI (RXF 393 renal): > 100 µM | TGI (SF-268 CNS): > 100 µM | TGI (TK-10 renal): > 100 µM

C[n+]1c2ccccc2nc2ccccc21
GI50 (COLO 205 colon): 0.375 µM | TGI (COLO 205 colon): 1.39 µM | GI50 (HOP-62 NSCLC): 3.66 µM | TGI (HOP-62 NSCLC): 10.7 µM | GI50 (HS 578T breast): 0.953 µM | TGI (HS 578T breast): 3.72 µM | GI50 (LOX IMVI melanoma): 0.819 µM | TGI (LOX IMVI melanoma): 2.38 µM | GI50 (NCI-H226 lung): 2.63 µM | TGI (NCI-H226 lung): 9.47 µM | GI50 (NCI/ADR-RES ovarian): 1.68 µM | TGI (NCI/ADR-RES ovarian): 6.91 µM | GI50 (OVCAR-4 ovarian): 0.447 µM | TGI (OVCAR-4 ovarian): 1.75 µM | GI50 (RXF 393 renal): 1.7 µM | TGI (RXF 393 renal): 4.29 µM | GI50 (SF-268 CNS): 2.52 µM | TGI (SF-268 CNS): 7.78 µM | GI50 (TK-10 renal): 2.71 µM | TGI (TK-10 renal): 13 µM

CCCCCCCCCCCCCCCCOP(=O)([O-])OCC[N+](C)(C)C
GI50 (COLO 205 colon): 0.424 µM | GI50 (HOP-62 NSCLC): 1.38 µM | GI50 (HS 578T breast): 4.21 µM | TGI (HS 578T breast): 18.9 µM and 40.7 µM | GI50 (LOX IMVI melanoma): 1.36 µM | GI50 (NCI-H226 lung): 1.59 µM | GI50 (NCI/ADR-RES ovarian): 11.1 µM | TGI (NCI/ADR-RES ovarian): 23.2 µM and 58.7 µM | GI50 (OVCAR-4 ovarian): 2.88 µM | TGI (OVCAR-4 ovarian): 12.6 µM and 38.6 µM | GI50 (RXF 393 renal): 0.427 µM | GI50 (SF-268 CNS): 2.93 µM | TGI (SF-268 CNS): 13.7 µM and 52.7 µM | GI50 (TK-10 renal): 0.182 µM

Nc1nc2cc(CC[C@H]3C[C@@H](n4ccc5c(N)ncnc54)[C@H](O)[C@@H]3O)ccc2cc1Br
GI50 (COLO 205 colon): 11.3 µM | TGI (COLO 205 colon): 37.3 µM | GI50 (HOP-62 NSCLC): 8.91 µM | TGI (HOP-62 NSCLC): 24.2 µM | GI50 (HS 578T breast): 14.1 µM | TGI (HS 578T breast): 36.8 µM | GI50 (LOX IMVI melanoma): 3.95 µM | TGI (LOX IMVI melanoma): 22.6 µM | GI50 (NCI-H226 lung): 2.71 µM | TGI (NCI-H226 lung): 26.8 µM | GI50 (NCI/ADR-RES ovarian): 10.5 µM | TGI (NCI/ADR-RES ovarian): 26.9 µM | GI50 (OVCAR-4 ovarian): 2.06 µM | TGI (OVCAR-4 ovarian): 19.1 µM | GI50 (RXF 393 renal): 6.95 µM | TGI (RXF 393 renal): 22.9 µM | GI50 (SF-268 CNS): 11.3 µM | TGI (SF-268 CNS): 27 µM | GI50 (TK-10 renal): 12.2 µM | TGI (TK-10 renal): 26.3 µM

CC(=O)OC12c3ccccc3-c3ccccc3C1C(C(=O)O)C2C(=O)O (stereo not drawn)
TGI (COLO 205 colon): > 10 µM | TGI (HOP-62 NSCLC): > 10 µM | TGI (HS 578T breast): > 10 µM | TGI (LOX IMVI melanoma): > 10 µM | TGI (NCI-H226 lung): > 10 µM | TGI (NCI/ADR-RES ovarian): > 10 µM | TGI (OVCAR-4 ovarian): > 10 µM | TGI (RXF 393 renal): > 10 µM | TGI (SF-268 CNS): > 10 µM | TGI (TK-10 renal): > 10 µM

CCCCCCCC(=O)SCC/C=C/[C@@H]1CC(=O)NCc2nc(cs2)C2=N[C@@](C)(CS2)C(=O)N[C@@H](C(C)C)C(=O)N1
GI50 (COLO 205 colon): 0.0114 µM | TGI (COLO 205 colon): 0.0302 µM | GI50 (HOP-62 NSCLC): 0.0321 µM | TGI (HOP-62 NSCLC): 13.1 µM | GI50 (HS 578T breast): 0.0183 µM | TGI (HS 578T breast): 38 µM | GI50 (LOX IMVI melanoma): 0.0198 µM | TGI (LOX IMVI melanoma): 0.0468 µM | GI50 (NCI-H226 lung): 0.906 µM | TGI (NCI-H226 lung): 22.2 µM | GI50 (NCI/ADR-RES ovarian): 26.7 µM | TGI (NCI/ADR-RES ovarian): > 100 µM | GI50 (OVCAR-4 ovarian): 0.0212 µM | TGI (OVCAR-4 ovarian): > 100 µM | GI50 (RXF 393 renal): < 0.0112 µM | TGI (RXF 393 renal): 0.0695 µM | GI50 (SF-268 CNS): 0.0769 µM | TGI (SF-268 CNS): > 50.5 µM | GI50 (TK-10 renal): 0.0175 µM | TGI (TK-10 renal): 0.316 µM

CCCCCCCC/C=C1\CCC(CN2CCOCC2)C1=O (stereo not drawn)
TGI (COLO 205 colon): 17.3 µM | TGI (HOP-62 NSCLC): 30 µM | TGI (HS 578T breast): 50.6 µM | TGI (LOX IMVI melanoma): 9.94 µM | TGI (NCI-H226 lung): 33.3 µM | TGI (NCI/ADR-RES ovarian): 14.4 µM | TGI (OVCAR-4 ovarian): 31 µM | TGI (RXF 393 renal): 25.3 µM | TGI (SF-268 CNS): 21.1 µM | TGI (TK-10 renal): 7.42 µM

O=C(/C=C1\C(=O)N(Cc2ccccc2)c2ccccc21)c1ccc(OCCN2CCCCC2)cc1
GI50 (COLO 205 colon): 1.77 µM | TGI (COLO 205 colon): 3.27 µM | GI50 (HOP-62 NSCLC): 18.4 µM | TGI (HOP-62 NSCLC): 32.4 µM | GI50 (HS 578T breast): 3 µM | TGI (HS 578T breast): 9.91 µM | GI50 (LOX IMVI melanoma): 1.71 µM | TGI (LOX IMVI melanoma): 3.14 µM | GI50 (NCI-H226 lung): 16.8 µM | TGI (NCI-H226 lung): 39.7 µM | GI50 (NCI/ADR-RES ovarian): 3.14 µM | TGI (NCI/ADR-RES ovarian): 11.7 µM | GI50 (OVCAR-4 ovarian): 2.99 µM | TGI (OVCAR-4 ovarian): 11.3 µM | GI50 (RXF 393 renal): 1.65 µM | TGI (RXF 393 renal): 3.17 µM | GI50 (SF-268 CNS): 2.98 µM | TGI (SF-268 CNS): 10.7 µM | GI50 (TK-10 renal): 1.58 µM | TGI (TK-10 renal): 2.97 µM
